Experimental data as given in patent US20070249655A1, “4-Substituted-1,5-Dihydro-Pyrido[3,2-B]Indol-2-Ones” (priority 2004, published 2007).

Tested on: wild type laboratory HIV strain (HIV-1 strain LAI)
Test: Antiviral cellular assay (MT4 cells, MTT), wild type
Format: cell-based
Details: Human immunodeficiency virus 1, MT4; read-out: EC50 value, wild-type HIV-LAI strain
Description: The compounds of the present invention were examined for anti-viral activity in a cellular assay. […] The cellular assay was performed according to the following procedure.
HIV- or mock-infected MT4 cells were incubated for five days in the presence of various concentrations of the inhibitor. At the end of the incubation period, the replicating virus in the control cultures has killed all HIV-infected cells in the absence of any inhibitor. Cell viability was determined by measuring the concentration of MTT, a yellow, water soluble tetrazolium dye that is converted to a purple, water insoluble formazan in the mitochondrial of living cells only. Upon solubilization of the resulting formazan crystals with isopropanol, the absorbance of the solution was monitored at 540 nm. The values correlate directly to the number of living cells remaining in the culture at the completion of the five day incubation. The inhibitory activity of the compound was monitored on the virus-infected cells and was expressed as EC50 and EC90. These values represent the amount of the compound required to protect 50% and 90%, respectively, of the cells from the cytopathogenic effect of the virus. The toxicity of the compound was measured on the mock-infected cells and was expressed as CC50, which represents the concentration of compound required to inhibit the growth of the cells by 50%. The selectivity index (SI) (ratio CC50/EC50) is an indication of the selectivity of the anti-HIV activity of the inhibitor. Wherever results are reported as e.g. pEC50 or pCC50 values, the result is expressed as the negative logarithm of the result expressed as EC50 or CC50 respectively.

Row | SMILES | EC50 [µM]
1 | N#Cc1ccc(-n2c(=O)c(C#N)cc3[nH]c4ccccc4c32)cc1 [Compound 45] | > 32
2 | Cn1c2ccccc2c2c1cc(C#N)c(=O)n2-c1ccc(C#N)cc1 [Compound 46] | 1 to 32
3 | Cn1c2ccccc2c2c1cc(C#N)c(=O)n2-c1ccc(-c2ccco2)cc1 [Compound 48] | 1 to 32
4 | O=c1ccc2[nH]c3ccccc3c2n1-c1ccc([N+](=O)[O-])cc1 [Compound 66] | 1 to 32
5 | Cn1c2ccccc2c2c1ccc(=O)n2-c1ccc([N+](=O)[O-])cc1 [Compound 67] | < 1
6 | Cn1c2ccccc2c2c1cc(Br)c(=O)n2-c1ccc([N+](=O)[O-])cc1 [Compound 68] | < 1
7 | Cn1c2ccccc2c2c1cc(C(=N)NO)c(=O)n2-c1ccc([N+](=O)[O-])cc1 [Compound 70] | 1 to 32
8 | Cn1c2ccccc2c2c1cc(Cl)c(=O)n2-c1ccc(C(=O)O)cc1 [Compound 87] | 1 to 32
9 | Cn1c2ccccc2c2c1cc(C#N)c(=O)n2-c1ccc(N)cc1 [Compound 89] | > 32
10 | N#Cc1ccc(-n2c(=O)ccc3[nH]c4ccccc4c32)cc1 [Compound 93] | 1 to 32
11 | O=C(O)c1ccc(-n2c(=O)ccc3[nH]c4ccccc4c32)cc1 [Compound 94] | 1 to 32
12 | Cn1c2ccccc2c2c1ccc(=O)n2-c1ccc(C#N)cc1 [Compound 96] | 1 to 32
13 | Cn1c2ccccc2c2c1ccc(=O)n2-c1ccc(/C(N)=N/O)cc1 [Compound 97] | 1 to 32
14 | Cn1c2ccccc2c2c1ccc(=O)n2-c1ccc(C(N)=O)cc1 [Compound 98] | 1 to 32
15 | Cn1c2ccccc2c2c1ccc(=O)n2-c1ccc(C(=O)O)cc1 [Compound 99] | 1 to 32
